Data as given in US8324245B2, “Quinoline derivative and quinazoline derivative inhibiting self-phosphorylation of hepatocytus proliferator receptor, and medicinal composition containing the same” (Kyowa Hakko Kirin Co., Ltd., priority 2001, dated 2012).

Biological target: T1, met (HGF receptor) in human gastric cancer cells MKN45 (Homo sapiens, UniProt P08581)
T1 construct: endogenous in cells; host or cells: MKN45 human gastric cancer cells
Test: Inhibitory activity against met-autophosphorylation using ELISA method (2), MKN45 cells, HGF-independent
Format: cell-based
How it was run: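 MKN45 cells, 3×10^4 per well in RPMI with 0.1% FCS overnight, were exposed to compound in DMSO for 1 h at 37 °C without HGF. Lysates were captured on anti-phosphotyrosine (PY20) plates, Met detected with anti-Met and peroxidase secondary antibody, absorbance at 450 nm.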

T1 sequence (P08581 25-1390): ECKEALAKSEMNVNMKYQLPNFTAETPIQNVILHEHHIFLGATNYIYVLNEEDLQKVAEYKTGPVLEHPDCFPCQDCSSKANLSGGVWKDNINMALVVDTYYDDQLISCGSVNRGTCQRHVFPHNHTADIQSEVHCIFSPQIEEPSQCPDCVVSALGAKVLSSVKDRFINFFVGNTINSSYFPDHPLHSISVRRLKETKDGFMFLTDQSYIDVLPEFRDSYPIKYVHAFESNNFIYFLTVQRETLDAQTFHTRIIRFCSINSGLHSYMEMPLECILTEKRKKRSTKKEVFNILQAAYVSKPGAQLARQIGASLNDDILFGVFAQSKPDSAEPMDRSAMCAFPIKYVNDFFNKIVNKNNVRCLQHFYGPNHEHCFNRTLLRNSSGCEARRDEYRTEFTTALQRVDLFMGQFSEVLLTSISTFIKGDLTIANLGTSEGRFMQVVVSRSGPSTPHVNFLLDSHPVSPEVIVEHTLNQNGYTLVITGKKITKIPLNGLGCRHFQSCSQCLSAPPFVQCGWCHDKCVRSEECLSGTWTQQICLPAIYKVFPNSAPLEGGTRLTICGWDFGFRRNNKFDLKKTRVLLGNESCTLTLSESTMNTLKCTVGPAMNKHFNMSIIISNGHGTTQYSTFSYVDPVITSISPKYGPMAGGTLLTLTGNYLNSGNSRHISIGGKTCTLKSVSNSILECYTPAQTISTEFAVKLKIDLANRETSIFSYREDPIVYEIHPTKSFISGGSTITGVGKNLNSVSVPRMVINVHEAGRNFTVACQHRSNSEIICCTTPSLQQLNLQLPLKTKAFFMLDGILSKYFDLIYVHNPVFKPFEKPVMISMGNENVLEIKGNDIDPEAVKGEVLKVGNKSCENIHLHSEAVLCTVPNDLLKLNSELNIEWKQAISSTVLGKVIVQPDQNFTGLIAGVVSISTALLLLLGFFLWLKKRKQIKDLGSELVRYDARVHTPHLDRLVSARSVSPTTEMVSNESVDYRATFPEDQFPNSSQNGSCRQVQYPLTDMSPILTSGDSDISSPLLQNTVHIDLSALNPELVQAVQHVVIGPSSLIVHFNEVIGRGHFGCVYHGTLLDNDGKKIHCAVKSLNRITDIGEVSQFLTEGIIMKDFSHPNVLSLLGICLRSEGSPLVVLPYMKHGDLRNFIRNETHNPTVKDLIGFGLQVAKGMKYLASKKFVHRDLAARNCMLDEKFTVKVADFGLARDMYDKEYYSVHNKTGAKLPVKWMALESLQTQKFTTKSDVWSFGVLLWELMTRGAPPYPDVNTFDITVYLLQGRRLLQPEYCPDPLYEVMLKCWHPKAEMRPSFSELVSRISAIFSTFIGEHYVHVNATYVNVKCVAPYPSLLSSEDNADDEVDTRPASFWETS

Structure (SMILES) | IC50
COc1cc2c(Oc3ccc(NC(=O)NC(=O)Cc4ccccc4F)cc3F)ccnc2cc1OCCCN1CCCC1 [Example 294, 1-{3-Fluoro-4-[6-methoxy-7-(3-pyrrolidin-1-yl-propoxy)-quinolin-4-yloxy]-phenyl}-3-[2-(2-fluoro-phenyl)-acetyl]-urea] | 23 nM
COc1cc2c(Oc3ccc(NC(=S)NC(=O)Cc4ccccc4Cl)cc3F)ccnc2cc1OCC(O)CN1CCCC1 (stereo not drawn) [Example 317, 1-[2-(2-Chloro-phenyl)-acetyl]-3-{3-fluoro-4-[7-(2-hydroxy-3-pyrrolidin-1-yl-propoxy)-6-methoxy-quinolin-4-yloxy]-phenyl}-thiourea] | 42.2 nM
COc1cc2nccc(Oc3ccc(NC(=O)CC(=O)Nc4cccc(O)c4)cc3)c2cc1OC [Example 220, N-[4-(6,7-dimethoxyquinolin-4-yloxy)phenyl]-N′-(3-hydroxyphenyl)malonamide] | 297 nM
COc1cc2nccc(Oc3ccc(NC(=O)NC(=O)Nc4cccc5ncccc45)cc3)c2cc1OC [Example 262, N-(5-quinolyl)-({[4-(6,7-dimethoxyquinolin-4-yloxy)anilino]carbonyl}amino)methanamide] | 269 nM
COc1cc2nccc(Oc3ccc(NC(=S)NC(=O)Cc4cc(F)ccc4F)cc3F)c2cc1OC [Example 195, 1-[2-(2,5-difluorophenyl)acetyl]-3-[4-(6,7-dimethoxyquinolin-4-yloxy)-3-fluorophenyl]thiourea] | 291 nM
COc1cc2nccc(Oc3ccc(NC(=O)C(OC)C(=O)Nc4ccc(F)cc4F)cc3)c2cc1OC (stereo not drawn) [Example 103, N-(2,4-difluorophenyl)-N′-[4-(6,7-dimethoxy-quinolin-4-yloxy)phenyl]-2-methoxymalonamide] | 2770 nM
COc1cc2nccc(Oc3ccc(NC(=O)NC(=O)Nc4ccccc4CCO)cc3)c2cc1OC [Example 267, N-[2-(2-hydroxyethyl)phenyl]-({[4-(6,7-dimethoxyquinolin-4-yloxy)anilino]carbonyl}amino)-methanamide] | 109 nM
COc1cc2c(Oc3ccc(NC(=S)NC(=O)Cc4ccccc4F)cc3F)ccnc2cc1OCCN1CCOCC1 [Example 278, 1-{3-Fluoro-4-[6-methoxy-7-(2-morpholin-4-yl-ethoxy)-quinolin-4-yloxy]-phenyl}-3-[2-(2-fluoro-phenyl)-acetyl]-thiourea] | 25.1 nM
COc1cc2c(Oc3ccc(NC(=O)NC(=O)Cc4ccc(F)cc4)c(F)c3)ccnc2cc1OCCCCN1CCCCC1 [Example 45, 1-{2-fluoro-4-[6-methoxy-7-(4-piperidine-1-yl-butoxy)quinolin-4-yloxy]phenyl}-3-[2-(4-fluorophenyl)-acetyl]urea] | 207 nM
COc1cc2nccc(Oc3ccc(NC(=S)NC(=O)Cc4ccccc4F)cc3Cl)c2cc1OC [Example 152, 1-[3-chloro-4-(6,7-dimethoxyquinolin-4-yloxy)phenyl]-3-[2-(2-fluorophenyl)acetyl]thiourea] | 248 nM
COc1cc2nccc(Oc3ccc(NC(=O)NC(=O)Cc4ccc(F)c(F)c4)c(F)c3)c2cc1OC [Example 140, 1-[2-(3,4-difluorophenyl)acetyl]-3-[4-(6,7-dimethoxyquinolin-4-yloxy)-2-fluorophenyl]urea] | 229 nM
COc1cc2nccc(Oc3ccc(NC(=O)NC(=O)Cc4ccsc4)cc3Cl)c2cc1OC [Example 21, 1-[3-chloro-4-(6,7-dimethoxyquinolin-4-yloxy)-phenyl]-3-(2-thiophen-3-ylacetyl)urea] | 188 nM
COc1cc2c(Oc3ccc(NC(=O)NC(=O)Cc4ccc(F)cc4)c(F)c3)ccnc2cc1OCCCN1CCCCC1 [Example 50, 1-{2-fluoro-4-[6-methoxy-7-(3-piperidin-1-yl-propoxy)quinolin-4-yloxy]phenyl}-3-[2-(4-fluorophenyl)-acetyl]urea] | 235 nM
COc1cc2nccc(Oc3ccc(NC(=S)NC(=O)Cc4cccs4)cc3)c2cc1OC [Example 66, 1-[4-(6,7-dimethoxyquinolin-4-yloxy)phenyl]-3-(2-thiophen-2-ylacetyl)thiourea] | 79.2 nM
COc1cc2nccc(Oc3ccc(NC(=O)NC(=O)Cc4cc(F)cc(F)c4)c(F)c3)c2cc1OC [Example 141, 1-[2-(3,5-difluorophenyl)acetyl]-3-[4-(6,7-dimethoxyquinolin-4-yloxy)-2-fluorophenyl]urea] | 336 nM
COc1cc2nccc(Oc3ccc(NC(=S)NC(=O)Cc4cccc(C)c4)cc3Cl)c2cc1OC [Example 78, 1-[3-chloro-4-(6,7-dimethoxyquinolin-4-yloxy)-phenyl]-3-(2-m-tolylacetyl)thiourea] | 66.3 nM
COc1cc2nccc(Oc3ccc(NC(=O)NC(=O)Nc4ccccc4SC)cc3)c2cc1OC [Example 253, N-[2-(methylsulfanyl)phenyl]-({[4-(6,7-dimethoxyquinolin-4-yloxy)anilino]carbonyl}amino)-methanamide] | 1340 nM
COc1cc2nccc(Oc3ccc(NC(=S)NC(=O)Cc4ccccc4F)cc3F)c2cc1OC [Example 81, 1-[4-(6,7-dimethoxyquinolin-4-yloxy)-3-fluoro-phenyl]-3-[2-(2-fluorophenyl)acetyl]thiourea] | 27.7 nM
COc1cccc(NC(=O)NC(=O)Nc2ccc(Oc3ccnc4cc(OC)c(OC)cc34)cc2)c1 [Example 244, N-(3-methoxyphenyl)-({[4-(6,7-dimethoxy-quinolin-4-yloxy)anilino]carbonyl}amino)methanamide] | 342 nM
COc1cc2nccc(Oc3ccc(NC(=S)NC(=O)Cc4ccc(C)cc4)c(F)c3)c2cc1OC [Example 92, 1-[4-(6,7-dimethoxyquinolin-4-yloxy)-2-fluoro-phenyl]-3-(2-p-tolylacetyl)thiourea] | 148 nM
CCCCNC(=O)CC(=O)Nc1ccc(Oc2ccnc3cc(OC)c(OC)cc23)cc1 [Example 209, N-butyl-N′-[4-(6,7-dimethoxyquinolin-4-yloxy)phenyl]malonamide] | 928 nM
COc1cc2nccc(Oc3ccc(NC(=S)NC(=O)Cc4ccc(Cl)cc4)c(F)c3)c2cc1OC [Example 188, 1-[2-(4-chlorophenyl)acetyl]-3-[4-(6,7-dimethoxyquinolin-4-yloxy)-2-fluorophenyl]thiourea] | 252 nM
COc1cc2nccc(Oc3ccc(NC(=O)NC(=O)Cc4ccccc4)cc3F)c2cc1OC [Example 17, 1-[4-(6,7-dimethoxyquinolin-4-yloxy)-3-fluoro-phenyl]-3-phenylacetylurea] | 30.7 nM
COc1cc2c(Oc3ccc(NC(=S)NC(=O)Cc4ccccc4)cc3F)ccnc2cc1OCCCN1CCC(CO)CC1 [Example 309, 1-(3-Fluoro-4-{7-[3-(4-hydroxymethyl-piperidin-1-yl)-propoxy]-6-methoxy-quinolin-4-yloxy}-phenyl)-3-phenylacetyl-thiourea] | 20.1 nM
COc1cc2nccc(Oc3ccc(NC(=S)NC(=O)Cc4ccccc4C)cc3)c2cc1OC [Example 79, 1-[4-(6,7-dimethoxyquinolin-4-yloxy)phenyl]-3-(2-o-tolylacetyl)thiourea] | 145 nM
COc1cc2nccc(Oc3ccc(NC(=S)NC(=O)Cc4cc(F)cc(F)c4)c(F)c3)c2cc1OC [Example 196, 1-[2-(3,5-difluorophenyl)acetyl]-3-[4-(6,7-dimethoxyquinolin-4-yloxy)-2-fluorophenyl]thiourea] | 322 nM
COc1cc2nccc(Oc3ccc(NC(=O)NC(=O)CN4CCCC4)cc3Cl)c2cc1OC [Example 111, 1-[3-chloro-4-(6,7-dimethoxyquinolin-4-yloxy)phenyl]-3-(2-pyrrolidin-1-ylacetyl)urea] | 1810 nM
